The target in test [1] is T1, AIK (Homo sapiens, UniProt O14965).
T1 sequence (O14965 1-403): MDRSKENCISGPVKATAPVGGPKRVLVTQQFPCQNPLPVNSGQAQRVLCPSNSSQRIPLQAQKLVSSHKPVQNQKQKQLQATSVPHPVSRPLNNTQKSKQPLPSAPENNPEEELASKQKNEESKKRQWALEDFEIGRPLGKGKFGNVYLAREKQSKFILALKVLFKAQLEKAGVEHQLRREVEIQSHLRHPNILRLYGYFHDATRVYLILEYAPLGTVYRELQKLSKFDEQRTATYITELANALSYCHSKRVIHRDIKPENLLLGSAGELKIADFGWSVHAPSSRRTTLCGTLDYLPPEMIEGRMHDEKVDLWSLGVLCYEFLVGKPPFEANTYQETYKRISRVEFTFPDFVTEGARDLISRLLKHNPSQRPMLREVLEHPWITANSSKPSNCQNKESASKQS
As to the kind of experiment: Inhibition of AIK, Direct Fluorescence Polarization (IMAP). The class given is biochemical. The conditions noted are these: FP assay, 2.5 uM ATP, 2.5 nM AIK. The protocol: The inhibitory properties of compounds relative to AIK may be determined by the Direct Fluorescence Polarization detection method (FP) using a Greiner small volume black 384-well-plate format under the following reaction conditions: 50 mM Hepes pH 7.3, 10 mM MgCl2, 10 mM NaCl, 1 mM DTT, 0.01% Brij35, 100 nM Fluorescein-LRRASLG peptide (provided by SYNPEP), 5% DMSO, 2.5 uM ATP. Detection of the reaction product is performed by addition of IMAP binding reagent (Molecular Devices). Reaction product may be determined quantitatively by FP using an Analyst HT plate reader (Molecular Devices) with an excitation wavelength at 485 nm and emission at 530 nm and using a Fluorescein 505 dichroic mirror.
The assay reaction may be initiated as follows: 2 ul of (3×) 300 nM Fl-Peptide/7.5 uM ATP was added to each well of the plate, followed by the addition of 2 ul of (3×) inhibitor (2.5 fold serial dilutions for 11 data points for each inhibitor) containing 15% DMSO. 2 ul of (3×) 7.5 nM AIK solution may be added to initiate the reaction (final enzyme concentration was 2.5 nM for AIK). […] Fluorescence polarization readings of the resulting reaction mixtures may be measured after a 60-minute incubation at room temperature.
IC50 values may be calculated by non-linear curve fitting of the compound concentrations and fluorescent polarization values to the standard IC50 equation.
In general terms: Polarisation of emitted light reports the rotation of a fluorescent probe.

Test [2] concerns the target c-KIT (Homo sapiens, UniProt P10721). Nature of the test: Inhibition of c-KIT, TR-FRET. The class given is biochemical. The conditions noted are these: TR-FRET assay, 100 uM ATP, 0.13 nM c-Kit.

Sequence of c-KIT (P10721 26-976): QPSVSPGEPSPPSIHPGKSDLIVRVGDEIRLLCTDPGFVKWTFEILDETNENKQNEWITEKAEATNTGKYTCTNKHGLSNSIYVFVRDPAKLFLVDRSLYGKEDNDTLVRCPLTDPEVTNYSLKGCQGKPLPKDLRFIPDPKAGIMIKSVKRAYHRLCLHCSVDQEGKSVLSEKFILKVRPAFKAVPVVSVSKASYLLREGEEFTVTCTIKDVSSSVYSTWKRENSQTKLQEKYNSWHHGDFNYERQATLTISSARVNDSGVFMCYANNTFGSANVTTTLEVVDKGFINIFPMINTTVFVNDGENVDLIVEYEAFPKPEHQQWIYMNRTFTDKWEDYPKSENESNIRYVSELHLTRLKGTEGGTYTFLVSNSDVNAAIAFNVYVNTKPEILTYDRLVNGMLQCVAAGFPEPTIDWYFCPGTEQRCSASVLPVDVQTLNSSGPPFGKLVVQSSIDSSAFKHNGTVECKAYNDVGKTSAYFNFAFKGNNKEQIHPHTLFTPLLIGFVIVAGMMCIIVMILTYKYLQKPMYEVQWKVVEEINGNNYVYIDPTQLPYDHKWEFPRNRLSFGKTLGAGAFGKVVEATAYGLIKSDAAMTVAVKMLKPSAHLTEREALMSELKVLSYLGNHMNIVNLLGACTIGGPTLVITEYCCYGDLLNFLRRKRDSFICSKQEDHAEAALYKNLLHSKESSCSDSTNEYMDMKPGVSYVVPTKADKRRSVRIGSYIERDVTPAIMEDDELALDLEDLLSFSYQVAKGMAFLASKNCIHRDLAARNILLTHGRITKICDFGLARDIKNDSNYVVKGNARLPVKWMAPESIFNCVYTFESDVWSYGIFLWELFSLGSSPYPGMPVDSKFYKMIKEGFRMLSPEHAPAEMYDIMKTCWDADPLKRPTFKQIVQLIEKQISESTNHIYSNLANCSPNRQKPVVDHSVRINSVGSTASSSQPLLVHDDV

Consider `Cc1cc(-c2c(O)[nH]c3ccccc23)nc(N)n1` [Example 1, 3-(2-Amino-6-methyl-pyrimidin-4-yl)-1H-indol-2-ol], for which the IC50 in test [1] and in test [2] was less than 100 µM throughout.

By IC50 is commonly meant the concentration that inhibits the measured activity by half. A lower IC50 goes with greater potency in that assay.

For the origin of these results see patent US20080153869A1, “Kinase Inhibitors” (priority 2004, published 2008).
